As usually defined, the density is mass per unit of volume.

We go through four molecules from patent US8318644B2, “Lubricating oil” (Idemitsu Kosan Co., Ltd., priority 2003, dated 2012).

The series is described as follows: Density of ionic liquids. To be noted: 20° C. Type of series: physicochemical. The procedure:
Density and molecular weight (Mw) of Ionic liquids 1 to 4 were determined at 20° C., and each ion concentration was calculated from the relationship: [density of ionic liquid (g/cm^3)/molecular weight (MW) of ionic liquid (g/mol)]×1000.
Molecule `CCn1cc[n+](C)c1.F[B-](F)(F)F` [Ionic liquid 1, 1-Ethyl-3-methylimidazolium tetrafluoroborate] gave a density of 1.283 g/mL.

For “Butylpyridinium bis(trifluoromethanesulfonyl)imide [Ionic liquid 2]”, the density turned out to be 1.453 g/mL.

In turn, “N,N-diethyl-N-methyl(2-methoxyethyl)ammonium bis(trifluoromethanesulfonyl)imide [Ionic liquid 3]” returned a density of 1.420 g/mL.

In turn, `CCCCn1cc[n+](C)c1.F[B-](F)(F)F` [Ionic liquid 4, 1-Butyl-3-methylimidazolium tetrafluoroborate] showed a density of 1.208 g/mL.
